Measurements as given in patent US8822419B2, “Membrane resident peptide in anti-cancer peptides causes tumor cell necrosis rather than apoptosis of cancer cells” (The Research Foundation of State University of New York, priority 2008, dated 2014).
Entries after “also recorded” stand apart in the source; their conditions may differ.

Legend:
MiaPaCa-2 cells [1] = assay: Incubation of MiaPaCa-2 cells with peptides; cell counts by trypan blue exclusion, MTT; type: cell-based, human
Procedure: Duplicate sets of 6×10^6 MiaPaCa-2 cells were incubated with different concentrations of PNC-28, i.e., 5, 10, 20, 40, 80 and 160 μmol/ml. […] All incubations were carried out using a protocol identical to that described in ref. 1 (1). After the cells had been allowed to adhere to the tissue culture dish (TCD) for 24 hours the medium was removed from each TCD, and new medium containing the same or no peptide concentration was added. Medium from each TCD was removed every 24 h, and fresh medium with its respective peptide at the appropriate concentration was added. Cells were inspected daily for changes in cell growth, morphology, and viability. At the end of each day over a five-day period, duplicate cell counts were performed for each incubation using the trypan blue exclusion method. In addition, cell viability was also determined by 3-[4,5-dimethylthiazol-2-yl]-2,5 diphenyl tetrazolium bromide (MTT) assay according to the manufacturers' instructions (Promega Corporation, Madison, Wis., USA).

MiaPaCa-2 cells [2] = assay: LDH release into cell culture medium (CytoTox96) as marker for necrosis; type: cell-based, human
Procedure: (§1) Cells from culture plates at 18, 44, 66 and 90 h time points were lysed in situ in cell lysis buffer [1% Triton X-100 in 0.05 M Tris-HCl (pH 8.0), […], 0.02% Na azide, 0.1 mg/ml phenylmethylsulfonylfluoride (PMSF), and 0.001 mg/ml Aprotinin]. Lysates were subjected to 10% SDS-PAGE followed by electrotransfer to nitrocellulose and immunoblotting with antibodies to GFP and p53 (Santa Cruz Biotechnology, Santa Cruz, Calif.). Antibody-labeled proteins were identified by chemiluminescence using ECL methodology (Amersham)(1). Assays for elevated caspase expression were performed using the Clontech (Palo Alto, Calif.) for caspase (CPP32) activity (2). As a positive control for the caspase activity assay, Mia-PaCa-2 cells were incubated with tumor necrosis factor (TNF) (Sigma, St. Louis, Mo.) at a concentration of 10 ng/ml for 24 h. In addition, to detect if significant cell necrosis occurred, the CytoTox96 assay was used (Promega, Madison, Wis.) for LDH released into the cell culture medium as performed on several breast cancer cell lines (2).

MiaPaCa-2 cells [3] = assay: Caspase (CPP32) activity assay as marker for apoptosis; type: cell-based, human
Procedure: as §1

cancer cells = settings: previous studies (1-3), also in cancer cells in which p53 protein was absent; cited from earlier work
MiaPaCa-2 cells [4] = assay: Immunoblotting of MiaPaCa-2 cell lysates for p53 and waf^p21, with caspase activity; type: cell-based, human; settings: at near 100 percent cell death: 96 hr transfected cells, 48 hr PNC-28 75 μmol/ml, FIG. 6
Procedure: For protein analyses, and detection of apoptosis, 2×10^6 cells were seeded into 10 cm diameter TCDs and transfected with DNA: Lipofectamine 2000 proportionally adjusted to the increased area. When the cell density reached 90-100%, the cells of the experimental and sham-transfected group were detached using trypsin and plated into four new TCD's in which they were allowed to grow in complete medium. At defined time points cells were released from adherence with 10 mM EDTA in PBS and were lysed in lysing buffer [1% Triton X-100 in 0.05 M Tris-HCl (pH 8.0), […], 0.02% Na azide, 0.01 mg/ml phenylmethylsulfonylfluoride (PMSF), and 0.001 mg/ml Aprotinin]. Protein equivalents of 10^6 cells, i.e., ˜30 μg/lane, were then subjected to SDS-PAGE using 10% Tris-HCl gels and, in some experiments, 16% Tricine Peptide Gels (Biorad, Hercules, Calif.) to detect PNC-28 (−3104 Da) and p53 17-26 (−1500 Da). […] Semi-quantitation of immunoblotting results was performed by measuring luminosity of bands in a single scanned developed x-ray film, using the histogram option of Adobe Photoshop 5.5. […] Opacity of each band was calculated by the equation, Opacity=255-Luminosity-background (15). […]

MiaPaCa-2 cells [5] = assay: Time-lapse electron microscopy of MiaPaCa-2 cells treated with PNC-28; type: cell-based, human; settings: 25 μmol/ml, 15 min, FIG. 4B
Procedure: Time-lapse electron microscopy (EM) was used to examine the ultrastructural features of cell death. MiaPaCa-2 cells were grown for 24 h on Thermanox cover slips (Lux Scientific), and then treated with 25 μmol of PNC-28 for 1 and 15 min, along with a corresponding control group without peptide. The cells were washed with PBS solution and then fixed with 2.5% gluteraldehyde-PBS. The fixed cultures were rinsed in a 0.1 M phosphate buffer (pH 7.3), post fixed in 2% (0.08 m) osmium tetroxide-PBS (pH 7.3), dehydrated in a graded series of ethanol and propylene oxide and embedded in Epon 812. Sections were cut at 700 Å, stained with uranyl acetate and lead citrate and examined with a Jeol JEM 1010 Electron Microscope.

[6] = all doses over the 20-75 μmol/ml range, FIG. 4D

CC[C@H](C)[C@H](NC(=O)[C@H](CCCNC(=N)N)NC(=O)[C@H](CCCCN)NC(=O)CNC(=O)[C@@H](NC(=O)[C@H](CO)NC(=O)[C@H](Cc1ccccc1)NC(=O)[C@@H]1CCCN1C(=O)[C@@H](N)CCSC)[C@@H](C)O)C(=O)N[C@@H](CCSC)C(=O)N[C@@H](CC(C)C)C(=O)NCC(=O)N[C@@H](CCC(=O)O)C(=O)N[C@@H](CCCCN)C(=O)N[C@@H](CCCCN)C(=O)N[C@@H](Cc1c[nH]c2ccccc12)C(=O)N[C@@H](CCCCN)C(=O)N[C@@H](CCSC)C(=O)N[C@@H](CCCNC(=N)N)C(=O)N[C@@H](CCCNC(=N)N)C(=O)N[C@@H](CC(N)=O)C(=O)N[C@@H](CCC(N)=O)C(=O)N[C@@H](Cc1ccccc1)C(=O)N[C@@H](Cc1c[nH]c2ccccc12)C(=O)N[C@H](C(=O)N[C@@H](CCCCN)C(=O)N[C@H](C(=O)N[C@@H](CCC(N)=O)C(=O)N[C@@H](CCCNC(=N)N)C(=O)NCC(=O)O)C(C)C)C(C)C [PNC-29, reference compound]
cytotoxicity, number of remaining cells versus untreated (MiaPaCa-2 cells [1]; 75 μmol/ml, 48 h, FIG. 3): no effect on cell growth

ETFSDLWKLLKKWKMRRNQFWVKVQRG (PNC-28)
LDH activity (MiaPaCa-2 cells [2]; 25 μmol/ml, 24 h, FIG. 4A): almost to the same extent as cells that were lysed with lysis buffer; also recorded: high levels of LDH | LDH (MiaPaCa-2 cells [2]; 25 umol/ml, 24 h, FIG. 4D): approximately 0.235 OD | LDH (MiaPaCa-2 cells [2]; 50 umol/ml, 24 h, FIG. 4D): approximately 0.44 OD | LDH (MiaPaCa-2 cells [2]; 75 umol/ml, 24 h, FIG. 4D): approximately 0.35 OD | LDH release (MiaPaCa-2 cells [2]; [6]): early release of LDH | caspase level (MiaPaCa-2 cells [3]; 25 μmol/ml, 24 h, FIG. 4C): only baseline levels | caspase (MiaPaCa-2 cells [3]; 25 umol/ml, 24 h, FIG. 4D): approximately 0.03 | caspase (MiaPaCa-2 cells [3]; 50 umol/ml, 24 h, FIG. 4D): approximately 0.02 | caspase (MiaPaCa-2 cells [3]; 75 umol/ml, 24 h, FIG. 4D): approximately 0.015 | caspase level (MiaPaCa-2 cells [3]; [6]): only background levels of caspase | mode of tumor cell death (cancer cells): induced tumor cell necrosis, not apoptosis | time to cell death (MiaPaCa-2 cells [1]; 20 μmol/ml): 1 week | cell death (MiaPaCa-2 cells [1]; 20 μmol/ml, 48 h, FIG. 2): roughly 35% | time to similar (near total) cell death (MiaPaCa-2 cells [1]; 40 μmol/ml): 4 days | cell morphology (MiaPaCa-2 cells [1]; 75 μmol/ml, 24 h, FIG. 1B): appear necrotic | cell death as measured by trypan blue dye uptake (MiaPaCa-2 cells [1]; 75 μmol/ml, 48 h): ~100% | time to near total cell death (MiaPaCa-2 cells [1]; 80 μmol/ml): 48 h | cell death (MiaPaCa-2 cells [1]; 80 μmol/ml, 48 h, FIG. 2): over 80% | cell death (MiaPaCa-2 cells [1]; doses between 20 and 75 μmol/ml, time decreasing with dose): ~100% | levels of p53, waf^p21 and caspase activity (MiaPaCa-2 cells [4]): not observed | plasma membrane integrity in electron micrographs (MiaPaCa-2 cells [5]): exhibit lysis of their plasma membranes

PPLSQETFSDLWKLLKKWKMRRNQFWVKVQRG (PNC-27)
mode of tumor cell death (cancer cells): induced tumor cell necrosis, not apoptosis

TNF-α [reference compound]
caspase 3 activity, positive control (MiaPaCa-2 cells [3]; 10 ng/ml, 24 h, FIG. 4C condition 1): Maximal caspase release
